Earlier results in patent publication US11926624B2 (INTERNATIONAL PAPER COMPANY, priority 2018, dated 2024).
Where two headings read alike, the source gives them in different places.

Assays:
Renilla Luciferase = molecular target: T1, Renilla Luciferase (Renilla reniformis, UniProt P27652); conditions: for Initial Intensity / Total Light / Aem: with Renilla Luciferase; for Initial Intensity: luminescent intensity as % initial intensity; for Total Light: native = 100
T1 sequence (P27652 1-311): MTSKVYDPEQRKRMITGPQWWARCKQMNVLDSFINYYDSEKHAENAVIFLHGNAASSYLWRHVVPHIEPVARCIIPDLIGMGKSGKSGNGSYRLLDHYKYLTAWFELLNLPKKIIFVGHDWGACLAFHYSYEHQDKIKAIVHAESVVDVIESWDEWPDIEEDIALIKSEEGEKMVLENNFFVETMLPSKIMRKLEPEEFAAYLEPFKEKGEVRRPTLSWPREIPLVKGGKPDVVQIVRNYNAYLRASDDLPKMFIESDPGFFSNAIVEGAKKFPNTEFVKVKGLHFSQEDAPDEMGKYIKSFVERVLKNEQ

[1] = system: Gaussia luciferase (Gluc)
aequorin = molecular target: T2, aequorin (Aequorea victoria, UniProt P07164); conditions: for luminescence intensity relative to coelenterazine (native form): coelenterazine-aequorin/apoaequorin complex
T2 sequence (P07164 8-196): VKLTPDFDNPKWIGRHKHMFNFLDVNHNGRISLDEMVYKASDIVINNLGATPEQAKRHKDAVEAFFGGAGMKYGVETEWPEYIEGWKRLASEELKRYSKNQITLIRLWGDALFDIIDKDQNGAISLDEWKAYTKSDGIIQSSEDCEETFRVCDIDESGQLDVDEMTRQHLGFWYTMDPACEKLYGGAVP

Compound	Total Light (Renilla Luciferase) [%]	substrate quality for Renilla luciferase (Renilla Luciferase)	Aem (Renilla Luciferase) [nm]	luminescence intensity relative to coelenterazine (native form) (aequorin)	also measured
8-benzyl-2-(4-hydroxybenzyl)-6-(4-hydroxyphenyl)imidazo[1,2-α]pyrazin-3(7H)-one [coelenterazine]	100				Initial Intensity (Renilla Luciferase; listed as native): 45%; Initial Intensity (Renilla Luciferase; listed as native coelenterazine): about 45%
O=c1c(Cc2ccccc2)nc2c(Cc3ccccc3)[nH]c(-c3ccccc3)cn1-2 [coelenterazine 400a, (2-2′(4-dehydroxy)) coelenterazine]		good substrate			oxidation with Gaussia luciferase [1]: does not oxidize well; emission maximum (Renilla Luciferase): about 400 nm
O=c1c(Cc2ccc(O)cc2)nc2c(CC3CCCC3)[nH]c(-c3ccc(O)cc3)cn1-2 [coelenterazine cp]	23		470		
O=c1c(Cc2ccc(F)cc2)nc2c(Cc3ccccc3)[nH]c(-c3ccc(O)cc3)cn1-2 [coelenterazine f]	28		473	about 20 times	Initial Intensity (Renilla Luciferase): 45%; emission maximum longer than that of the native form (aequorin; coelenterazine-apoaequorin complex): about 8 nm
O=c1c(Cc2ccc(F)cc2)nc2c(CC3CCCC3)[nH]c(-c3ccc(O)cc3)cn1-2 [coelenterazine fcp]		poor substrate		about 135 times	
